From ChEMBL document CHEMBL4699579, “A Peptidyl Inhibitor that Blocks Calcineurin-NFAT Interaction and Prevents Acute Lung Injury” (J Med Chem, 2020)
Active and inactive are the calls of the source. The rule behind the calls is not given here. Positions of bridges follow the written chain, without caps; N, C: chain ends. Non-standard residues stand in square brackets, D forms with d. Residues, ends and D or L forms follow the SMILES beside them. Chains are numbered I, II in the order given. *: point of attachment. Benzoyl(2,3-Cl2) = O=C(c1cccc(Cl)c1Cl)*; 2Nal = N[C@@H](Cc1ccc2ccccc2c1)C(=O)O; Tle = CC(C)(C)[C@H](N)C(=O)O; AEEA = NCCOCCOCC(=O)O

Tests used:
Mus musculus [1] = test: Anti-inflammatory activity in BALB/c mouse model of LPS-induced ALI assessed as reduction in LPS-induced IL6 in BALF at 10 mg/kg dosed via intranasal insuffIation pre-treated 2 hrs before LPS stimulation for 16 hrs; assay type: functional, organism-based; settings: time 18.0 hrs
Mus musculus [2] = test: Anti-inflammatory activity in BALB/c mouse model of LPS-induced ALI assessed as reduction in lung wet-to-dry ratios at 5 mg/kg dosed via intranasal insuffIation pre-treated 2 hrs before LPS stimulation for 16 hrs; assay type: functional, organism-based; settings: dose mg/kg 5-10, time 18.0 hrs
Mus musculus [3] = test: Anti-inflammatory activity in BALB/c mouse model of LPS-induced ALI assessed as reduction in LPS-induced TNFalpha in plasma at 10 mg/kg dosed via intranasal insuffIation pre-treated 2 hrs before LPS stimulation for 16 hrs; assay type: functional, organism-based; settings: time 18.0 hrs
Macrophage [4] = test: Inhibition of LPS-induced TNFalpha production in mouse lung macrophages at 10 uM pre-incubated 4 hrs before LPS stimulation for 8 hrs by ELISA; assay type: functional, cell-based; settings: time 12.0 hrs
Macrophage [5] = test: Inhibition of LPS-induced IL6 production in mouse lung macrophages at 10 uM pre-incubated 4 hrs before LPS stimulation for 8 hrs by ELISA; assay type: functional, cell-based; settings: time 12.0 hrs
Mus musculus [6] = test: Anti-inflammatory activity in BALB/c mouse model of LPS-induced ALI assessed as reduction in number of neutrophils BALF at 5 mg/kg dosed via intranasal insuffIation pre-treated 2 hrs before LPS stimulation for 16 hrs; assay type: functional, organism-based; settings: dose mg/kg 5-10, time 18.0 hrs
Mus musculus [7] = test: Anti-inflammatory activity in BALB/c mouse model of LPS-induced ALI assessed as reduction in LPS-induced IL6 in plasma at 5 mg/kg dosed via intranasal insuffIation pre-treated 2 hrs before LPS stimulation for 16 hrs; assay type: functional, organism-based; settings: dose mg/kg 5-10, time 18.0 hrs
Mus musculus [8] = test: Anti-inflammatory activity in BALB/c mouse model of LPS-induced ALI assessed as reduction in LPS-induced IL6 in plasma at 10 mg/kg dosed via intranasal insuffIation pre-treated 2 hrs before LPS stimulation for 16 hrs; assay type: functional, organism-based; settings: time 18.0 hrs
Mus musculus [9] = test: Anti-inflammatory activity in BALB/c mouse model of LPS-induced ALI assessed as reduction in lung wet-to-dry ratios at 10 mg/kg dosed via intranasal insuffIation pre-treated 2 hrs before LPS stimulation for 16 hrs; assay type: functional, organism-based; settings: time 18.0 hrs
Mus musculus [10] = test: Anti-inflammatory activity in BALB/c mouse model of LPS-induced ALI assessed as reduction in LPS-induced TNFalpha in plasma at 5 mg/kg dosed via intranasal insuffIation pre-treated 2 hrs before LPS stimulation for 16 hrs; assay type: functional, organism-based; settings: dose mg/kg 5-10, time 18.0 hrs
Mus musculus [11] = test: Anti-inflammatory activity in BALB/c mouse model of LPS-induced ALI assessed as reduction in number of neutrophils BALF at 10 mg/kg dosed via intranasal insuffIation pre-treated 2 hrs before LPS stimulation for 16 hrs; assay type: functional, organism-based; settings: time 18.0 hrs
Macrophage [12] = test: Inhibition of calcineurin-NFATc3 interaction in mouse bone marrow-derived macrophages assessed as reduction in LPS-induced NFATc3 nuclear translocation at 1 uM pre-incubated before LPS stimulation for 1 hr using biotinylated compound by immunofluorescence staining assay
Mus musculus [13] = test: Anti-inflammatory activity in BALB/c mouse model of LPS-induced ALI assessed as reduction in LPS-induced TNFalpha in BALF at 10 mg/kg dosed via intranasal insuffIation pre-treated 2 hrs before LPS stimulation for 16 hrs; assay type: functional, organism-based; settings: time 18.0 hrs
Mus musculus [14] = test: Anti-inflammatory activity in BALB/c mouse model of LPS-induced ALI assessed as reduction in LPS-induced IL6 in BALF at 5 mg/kg dosed via intranasal insuffIation pre-treated 2 hrs before LPS stimulation for 16 hrs; assay type: functional, organism-based; settings: dose mg/kg 5-10, time 18.0 hrs
Mus musculus [15] = test: Anti-inflammatory activity in BALB/c mouse model of LPS-induced ALI assessed as reduction in LPS-induced extravasated BALF protein in BALF at 10 mg/kg dosed via intranasal insuffIation pre-treated 2 hrs before LPS stimulation for 16 hrs; assay type: functional, organism-based; settings: time 18.0 hrs
Mus musculus [16] = test: Anti-inflammatory activity in BALB/c mouse model of LPS-induced ALI assessed as reduction in LPS-induced extravasated BALF protein in BALF at 5 mg/kg dosed via intranasal insuffIation pre-treated 2 hrs before LPS stimulation for 16 hrs; assay type: functional, organism-based; settings: dose mg/kg 5-10, time 18.0 hrs
Mus musculus [17] = test: Anti-inflammatory activity in BALB/c mouse model of LPS-induced ALI assessed as reduction in LPS-induced TNFalpha in BALF at 5 mg/kg dosed via intranasal insuffIation pre-treated 2 hrs before LPS stimulation for 16 hrs; assay type: functional, organism-based; settings: dose mg/kg 5-10, time 18.0 hrs
[18] = Half life in human serum; assay type: ADME, cell-free
Macrophage [19] = test: Inhibition of calcineurin-NFATc3 interaction in mouse lung macrophages assessed as reduction in LPS-induced IL6 production at 0.01 to 10 uM pre-incubated 4 hrs before LPS stimulation for 8 hrs by ELISA; assay type: tissue-based; settings: dose microM 0.01-10, time 12.0 hrs
HeLa = test: Toxicity in human HeLa cells assessed as reduction in cell viability up to 25 uM incubated for 72 hrs by MTT assay; assay type: cell-based
Macrophage [20] = test: Inhibition of calcineurin-NFATc3 interaction in mouse lung macrophages assessed as reduction in LPS-induced TNFalpha production at 0.01 to 10 uM pre-incubated 4 hrs before LPS stimulation for 8 hrs by ELISA; assay type: tissue-based; settings: dose microM 0.01-10, time 12.0 hrs
[21] = Toxicity in mouse lung macrophages cells assessed as reduction in cell viability up to 25 uM incubated for 72 hrs by MTT assay; assay type: tissue-based; settings: macrophage
Jurkat = test: Inhibition of Calcineurin in human Jurkat cells; assay type: cell-based
[22] = Drug uptake in cytosol in human HeLa cells assessed as cytosolic delivery efficiency at 5 uM incubated for 2 hrs by floe cytometry relative to control; assay type: ADME, subcellular

| Compound | Activity (Mus musculus [1]) | Activity (Mus musculus [2]) | Activity (Mus musculus [3]) | Activity (Mus musculus [6]) | Activity (Mus musculus [7]) | Activity (Mus musculus [8]) | Activity (Mus musculus [9]) | Activity (Mus musculus [10]) | Activity (Mus musculus [11]) | Activity (Mus musculus [13]) | Activity (Mus musculus [14]) | Activity (Mus musculus [15]) | Activity (Mus musculus [16]) | Activity (Mus musculus [17]) | also measured |
| --- | --- | --- | --- | --- | --- | --- | --- | --- | --- | --- | --- | --- | --- | --- | --- |
| CC(C)[C@H](NC(=O)[C@H](C)NC(=O)[C@@H](NC(=O)[C@@H]1CCCN1C(=O)[C@H](Cc1cnc[nH]1)NC(=O)[C@@H]1CCCN1C(=O)CNC(=O)COCCOCCNC(=O)CC[C@@H]1NC(=O)[C@@H](CCCNC(=N)N)NC(=O)[C@H](CCCNC(=N)N)NC(=O)[C@@H](CCCNC(=N)N)NC(=O)[C@H](CCCNC(=N)N)NC(=O)[C@H](Cc2ccc3ccccc3c2)NC(=O)[C@@H](Cc2ccccc2)NC1=O)C(C)C)C(=O)N[C@@H](C)C(=O)N[C@@H](C)C(=O)NCC(=O)N1CCC[C@H]1C(=O)N[C@@H](Cc1c[nH]cn1)C(=O)N[C@@H](CCC(=O)O)C(=O)N[C@@H](CCC(=O)O)C(=O)N[C@@H](CCCCN)C(N)=O | inactive | inactive | inactive | inactive | inactive | inactive | inactive | inactive | inactive | inactive | inactive | inactive | inactive | inactive | inhibition (Macrophage [4]): Active; inhibition (Macrophage [5]): Active; inhibition (Macrophage [12]): inactive |
| CC[C@H](C)[C@H](NC(=O)[C@@H](NC(=O)c1cccc(Cl)c1Cl)C(C)(C)C)C(=O)N[C@H](C(=O)N[C@H](C(=O)N[C@H](C(=O)N[C@@H](CCC(N)=O)C(=O)N[C@@H](Cc1c[nH]cn1)C(=O)N[C@H](CC(C)C)C(=O)N[C@@H](CO)C(=O)NCCOCCOCC(=O)N[C@@H](CCCCNC(=O)CC[C@@H]1NC(=O)[C@@H](CCCNC(=N)N)NC(=O)[C@H](CCCNC(=N)N)NC(=O)[C@@H](CCCNC(=N)N)NC(=O)[C@H](CCCNC(=N)N)NC(=O)[C@H](Cc2ccc3ccccc3c2)NC(=O)[C@@H](Cc2ccccc2)NC1=O)C(N)=O)[C@@H](C)O)[C@@H](C)CC)C(C)(C)C (I: {Benzoyl(2,3-Cl2)}-[Tle]I[Tle]ITQH[dL]S[AEEA]K-NH2 / II: cyclo([2Nal]R[dR]R[dR]E[dF]); amide I:11-II:6) | inactive | inactive | inactive | inactive | inactive | inactive | inactive | inactive | inactive | inactive | inactive | inactive | inactive | inactive | half-life [18]: > 24 h; inhibition (Macrophage [19]): inactive; Activity (HeLa): Non-Toxic; inhibition (Macrophage [20]): inactive; Activity [21]: Non-Toxic |
| CC[C@H](C)[C@H](NC(=O)[C@@H](NC(=O)c1cccc(Cl)c1Cl)C(C)(C)C)C(=O)N[C@H](C(=O)N[C@H](C(=O)N[C@H](C(=O)N[C@@H](CCC(N)=O)C(=O)N[C@@H](Cc1c[nH]cn1)C(=O)N[C@H](CC(C)C)C(=O)N[C@@H](CO)C(=O)NCCOCCOCC(=O)N[C@@H](CCCCNC(=O)CC[C@@H]1NC(=O)[C@@H](CCCNC(=N)N)NC(=O)[C@H](CCCNC(=N)N)NC(=O)[C@@H](CCCNC(=N)N)NC(=O)[C@H](CCCNC(=N)N)NC(=O)[C@H](Cc2ccc3ccccc3c2)NC(=O)[C@@H](Cc2ccccc2)NC1=O)C(N)=O)[C@@H](C)O)[C@@H](C)CC)C(C)(C)O | – | – | – | – | – | – | – | – | – | – | – | – | – | – | inhibition (Jurkat): Active |
| N=C(N)NCCC[C@@H]1NC(=O)[C@H](Cc2ccc3ccccc3c2)NC(=O)[C@@H](Cc2ccccc2)NC(=O)[C@H](CCC(N)=O)NC(=O)[C@@H](CCCNC(=N)N)NC(=O)[C@H](CCCNC(=N)N)NC(=O)[C@@H](CCCNC(=N)N)NC1=O (cyclo([2Nal]R[dR]R[dR]Q[dF])) | – | – | – | – | – | – | – | – | – | – | – | – | – | – | Drug uptake [22]: 62% |
